Where a SMILES comes first, the peptide text is derived from it. The star is where a group is joined. Cbz = O=C(OCc1ccccc1)*; CH2F = FC*
Tests used:
[1] = system: nerve cells differentiated from iPS cells; assay: Prediction model MDL score of nerve cell images versus Z-VAD-FMK concentration; assay type: cell-based, human; conditions: FIG. 14, higher score = greater probability that the cell will survive
Description: Activated caspase-3 in apoptotic nerve cells was detected by using a fluorogenic substrate consisting of a four-amino acid peptide DEVD (SEQ ID NO: 1) bound to a nucleic acid binding dye (product name “CellEvent Caspase-3/7 Green Detection Reagent”, Thermo Fisher Scientific Inc.). Since the DEVD peptides inhibit the binding of fluorescent dyes to DNA, the above-described fluorogenic substrate is essentially non-fluorescent. However, when activated caspase-3 in dead cells cleaves the DEVD peptide, a fluorescent dye binds to the DNA to cause fluorescence, which can be detected using a standard FITC green filter set of a standard time lapse imaging system (product name “Incucyte ZOOM”, Essen Bioscience, Ltd.) (exposure time 400 ms). Images were photographed over time every 6 hours after drug administration.
The original size of the single-well image captured by using the time lapse imaging system (product name “Incucyte ZOOM”, Essen Bioscience, Ltd.) was 1,392×1,038 pixels, and four images were cut out from this image and extracted as the cropped image IMGC. The original image was divided evenly into four regions, and square images were taken out from the center of each region. The size of the trimmed cropped image IMGC was selected from 128×128, 256×256, 512×512, 768×768, and 1,020×1,020 in width×height. […]

[2] = system: nerve cells differentiated from iPS cells; assay: Single cell analysis (single cell RNA sequence, UMAP clustering) of nerve cells with Z-VAD-FMK; assay type: cell-based, human
Description: FIG. 15 is a view showing the schematics of a proposed method. As illustrated in the drawing, Z-VAD-FMK is added to nerve cells and changes in gene expression of individual cells are observed before cell death occurs (before caspase-3 activation occurs) (single cell RNA sequence=WHAT in the drawing). At the same time, the images are acquired, and the CNN-based prediction model MDL is used to check where the changes are occurring (WHERE in the drawing). In this manner, a method for identifying the molecules, where and what is occurring before cell death, is proposed.
Single cell analysis was performed using the above-described proposed method. FIG. 16 is a view illustrating an example of clustering results of cells. While changing the concentration of Z-VAD-FMK added to the nerve cells to 0 [μM], 0.2 [μM], and 25 [μM], the cell population was separated into a total of 15 types of clusters ranging from 0 to 14 by using a visualization method (one type of dimensional compression method) which is called UMAP (uMAP).
FIG. 22 is a view illustrating a relationship between the Z-VAD-FMK concentration and the cluster size. […] As a result, the cluster 12 was identified as a cluster that satisfies the conditions.

COC(=O)C[C@H](NC(=O)[C@H](C)NC(=O)[C@@H](NC(=O)OCc1ccccc1)C(C)C)C(=O)CF [Z-VAD-FMK] (Cbz-Val-Ala-Asp(OMe)-CH2F)
score of the prediction model MDL (probabilistic value related to the life or death of cells) [1]: the higher the Z-VAD-FMK concentration, the higher the score | effect of Z-VAD-FMK concentration on cluster shapes of UMAP expanded cell populations ([2]; 0, 0.2 and 25 μM Z-VAD-FMK, 15 clusters (0 to 14), FIGS. 16 to 21): no effect on most of the cell populations | cluster size (number of cells in cluster 12, caspase-3 activated) ([2]; cluster 12, with addition of Z-VAD-FMK, FIG. 22): the number of cells in its own cluster decreased with the addition of Z-VAD-FMK
